Columns and labels:
[1] = molecular target: T1, F508del CFTR in NIH3T3 cells (Homo sapiens, UniProt P13569, DEL508-508); assay: Membrane potential optical assay (correction assay); assay type: cell-based
T1 construct: expressed in transfected cells
Text: An optical assay was employed to measure changes in membrane potential to determine the CFTR modulator properties of compounds. The assay utilized fluorescent voltage sensing dyes to measure changes in membrane potential using a fluorescent plate reader (e.g., FLIPR III, Molecular Devices, Inc.) as a readout for increase in functional F508del in NIH 3T3 cells. The driving force for the response was the creation of a chloride ion gradient in conjunction with channel activation and concurrent with compound treatment by a single liquid addition step after the cells had previously been loaded with a voltage sensing dye.
NIH3T3 mouse fibroblasts stably expressing F508del were used for optical measurements of membrane potential. The cells were maintained at 37° C. in 5% CO2 and 90% humidity in Dulbecco's modified Eagle's medium supplemented with 2 mM glutamine, 10% fetal bovine serum, 1×NEAA, P-ME, 1× pen/strep, and 25 mM HEPES in 175 cm^2 culture flasks. For all optical assays, the cells were seeded at 12,000 cells/well in 384-well matrigel-coated plates. […] The cells were then activated and treated with Compound I. After 18-24 hours, fluorescence from the voltage sensing dye in the cells was measured to assess changes in the membrane potential as a read out for increase in functional F508del CFTR in the NIH3T3 cells.

[2] = molecular target: T2, F508del-CFTR in human bronchial epithelial (HBE) cells (Homo sapiens, UniProt P13569, DEL508-508); assay: Ussing chamber assay; assay type: cell-based; conditions: chloride current
T2 construct: Non-CF and CF airway epithelia were isolated from bronchial tissue; endogenous in cells; host or cells: primary CF human bronchial epithelial (HBE) cells
Protocol: Ussing chamber experiments were performed on polarized airway epithelial cells expressing F508del to further characterize the F508del modulators identified in the optical assay above. Non-CF and CF airway epithelia were isolated from bronchial tissue, cultured using methods well known in the art, and plated onto Costar® Snapwell™ filters that were precoated with NIH3T3-conditioned media. After four days the apical media was removed and the cells were grown at an air liquid interface for >14 days prior to use. […] CF-HBE cells were isolated from patients homozygous for F508del (F508del/F508del-HBE) or heterozygous for F508del with a different disease causing mutation on the other allele.
HBE cells grown on Costar® Snapwell™ cell culture inserts were mounted in an Ussing chamber (Physiologic Instruments, Inc., San Diego, CA), and the transepithelial resistance and short-circuit current in the presence of a basolateral to apical Cl^− gradient (ISC) were measured using a voltage-clamp system (Department of Bioengineering, University of Iowa, IA). Briefly, HBE cells were examined under voltage-clamp recording conditions (Vhold=0 mV) at 37° C. […]
A basolateral to apical membrane Cl^− concentration gradient was set up as follows. […] Chloride current was measured to assess the increase in functional CFTR in the cell membrane.

[3] = Rat pharmacokinetics, single IV and PO dose; assay type: in vivo, male Sprague Dawley rats; conditions: single nominal oral dose 3 mg/kg
Protocol: Compound 1 was also administered to male Sprague Dawley rats at single nominal oral dose (PO) of 3 mg/kg as a solution in 5% NMP, 30% PEG400, 10% TPGS, 5% PVP-K30 at 5 mL/kg dose volume.
The study design, sample tracking, data run design and individual plasma sample concentrations were stored using Watson LIMS software, Version 7.4.2 (Thermo Scientific Inc, Waltham, MA). Plasma concentration-time profiles of Compound 1 in Sprague Dawley rats at scheduled (nominal) sampling times were analyzed by noncompartmental pharmacokinetic methods using PK function within Watson LIMS software, Version 7.4.2 (Thermo Scientific Inc, Waltham, MA). Key pharmacokinetic parameters such as “area under the curve” (AUC), from the time of drug administration, time zero, extrapolated to infinity, clearance (CL), and Percent of oral bioavailability (% F) were determined. The AUC values were calculated using the linear trapezoidal rule.

healthy subjects = assay: Safety and Efficacy Study 1, Part 1 with healthy subjects; assay type: in vivo, human; conditions: interim data

T1 sequence (P13569 with tags, fused parts or gaps DEL508-508): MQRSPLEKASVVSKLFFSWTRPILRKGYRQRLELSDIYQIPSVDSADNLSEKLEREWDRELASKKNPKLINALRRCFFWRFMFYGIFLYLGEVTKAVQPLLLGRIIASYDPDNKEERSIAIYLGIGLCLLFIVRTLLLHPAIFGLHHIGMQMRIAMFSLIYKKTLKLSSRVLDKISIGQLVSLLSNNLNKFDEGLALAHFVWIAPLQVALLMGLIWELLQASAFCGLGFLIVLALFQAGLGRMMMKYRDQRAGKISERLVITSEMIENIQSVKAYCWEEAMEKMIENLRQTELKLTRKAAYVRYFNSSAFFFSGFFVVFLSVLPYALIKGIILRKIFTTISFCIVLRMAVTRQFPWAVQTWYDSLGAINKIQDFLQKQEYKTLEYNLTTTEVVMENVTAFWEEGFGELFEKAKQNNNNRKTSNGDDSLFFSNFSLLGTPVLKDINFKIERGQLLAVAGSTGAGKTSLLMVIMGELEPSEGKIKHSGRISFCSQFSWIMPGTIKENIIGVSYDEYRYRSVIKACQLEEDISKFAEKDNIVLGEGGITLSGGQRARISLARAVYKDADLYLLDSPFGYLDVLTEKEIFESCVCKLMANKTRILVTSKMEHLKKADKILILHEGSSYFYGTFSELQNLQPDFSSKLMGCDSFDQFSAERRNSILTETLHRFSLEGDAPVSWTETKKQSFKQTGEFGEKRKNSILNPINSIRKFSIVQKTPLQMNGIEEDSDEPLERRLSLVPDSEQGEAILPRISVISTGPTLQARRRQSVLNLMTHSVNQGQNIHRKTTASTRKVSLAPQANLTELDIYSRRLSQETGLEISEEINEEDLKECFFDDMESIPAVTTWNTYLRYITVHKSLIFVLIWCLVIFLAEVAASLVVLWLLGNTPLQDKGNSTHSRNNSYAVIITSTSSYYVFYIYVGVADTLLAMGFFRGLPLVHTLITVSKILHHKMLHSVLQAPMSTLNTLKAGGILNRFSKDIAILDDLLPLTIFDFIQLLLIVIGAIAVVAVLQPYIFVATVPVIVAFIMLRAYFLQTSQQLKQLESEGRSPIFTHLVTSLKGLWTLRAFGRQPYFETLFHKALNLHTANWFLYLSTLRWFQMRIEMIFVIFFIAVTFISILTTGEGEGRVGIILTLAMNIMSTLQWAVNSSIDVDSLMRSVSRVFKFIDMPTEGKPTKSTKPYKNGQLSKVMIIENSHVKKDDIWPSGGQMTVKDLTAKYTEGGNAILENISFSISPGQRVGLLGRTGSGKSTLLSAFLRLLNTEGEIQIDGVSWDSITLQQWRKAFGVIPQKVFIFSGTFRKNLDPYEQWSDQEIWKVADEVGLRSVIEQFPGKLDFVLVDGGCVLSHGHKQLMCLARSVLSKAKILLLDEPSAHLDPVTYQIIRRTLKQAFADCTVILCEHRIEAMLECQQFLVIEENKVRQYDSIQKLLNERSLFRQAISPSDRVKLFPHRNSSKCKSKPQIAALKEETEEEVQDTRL
T2 sequence (P13569 with tags, fused parts or gaps DEL508-508): as above

Emax ([1]; NIH3T3, relative to Compound II, read-out: % Efficacy): ≥ 100% | EC50 ([1]; NIH3T3 cells expressing F508del, 18-24 hours treatment): < 3000 nM | EC50 [2]: < 2000 nM | HBE Max Eff [2]: +++ (means >100%) | Rat PO AUC/dose [3]: 9.4 ± 0.7 µg·h/mL/mg/kg
Structure (SMILES): Cc1nn(C)cc1S(=O)(=O)NC(=O)c1ccc(-n2ccc(OCC(C)(C)C(F)(F)F)n2)nc1N1C[C@@H](C)CC1(C)C [Compound I, N-(1,3-dimethylpyrazol-4-yl)sulfonyl-6-[3-(3,3,3-trifluoro-2,2-dimethyl-propoxy)pyrazol-1-yl]-2-[(4S)-2,2,4-trimethylpyrrolidin-1-yl]pyridine-3-carboxamide]
safety and tolerability (healthy subjects; multiple doses up to 340 mg for 10 days): safe and well tolerated | safety and tolerability (healthy subjects; single doses up to 360 mg): safe and well tolerated

From patent US12350262B2, “Methods of treatment for cystic fibrosis” (Vertex Pharmaceuticals Incorporated, priority 2017, dated 2025)
